Tests used:
Lewis lung carcinoma = assay: Animal Test on Lewis Lung Carcinoma (growth inhibition, metastasis); assay type: in vivo, mice [BDF1 (C57BL/6×DBA/2)]; conditions: orally, 8 days, tumor weight on 20th day
Protocol: (§1) Antitumor activities of bis-dioxopiperazine derivatives which the present invention concerns were verified by the growth inhibition or the increase of life span in experimental animals with syngenic tumors such as P388 lymphocytic leukemia, Lewis lung carcinoma, B-16 melanoma and Colon Adenocarcinoma No. 38 as shown below.
(§2) The treated group to which the compound of the present invention was administered consisted of seven mice, while the control group consisted of ten mice. Six weeks old male mice [BDF1 (C57BL/6×DBA/2), 25±2 g of body weight] were employed as host animals.
Tumor cells (5×10^5) of Lewis lung carcinoma were transplanted subcutaneously in inguinal region of each mouse. The treatment began one day after the transplantation and the prescribed dose of each test compound was administered orally to the mice once a day for 8 days.
On the 20th day after the transplantation, the tumors of all the mice were excised and weighed. Antitumor activity of the test compound was evaluated by the rate of growth inhibition (G.I.%) which was calculated with the following formula. [formula] T: mean tumor weight of treated mice C: mean tumor weight of control mice

B-16 melanoma = assay: Animal Test on B-16 Melanoma (increase in life span); assay type: in vivo, mice [BDF1 (C57BL/6×DBA/2)]; conditions: Mus musculus, B16, ip, 192 h, i.p., 8 days; for ILS at 20 mg/kg: 20 mg/kg daily; for ILS at 30 mg/kg: 30 mg/kg daily
Protocol: The treated group to which the compound of the present invention was administered consisted of seven mice, while the control group consisted of ten mice. Six weeks old male mice [BDF1 (C57BL/6×DBA/2) 25±2 g of body weight] were employed as host animals.
Tumor cells (5×10^5) of B-16 melanoma were transplanted intraperitoneally into each mouse. The treatment began one day after the transplantation and the prescribed dose of each test compound was administered intraperitoneally to the mice once a day for 8 days.
Antitumor activity of the test compound was evaluated by the rate of increase in life span (I.L.S.%) which was calculated in the same manner as used in the animal test on P388 lymphocytic leukemia.

[1] = tested on: P388 lymphocytic leukemia; assay: Animal Test on P388 Lymphocytic Leukemia (increase in life span); assay type: in vivo, mice [CDF1 (BALB/c×DBA/2)]; conditions: Mus musculus, P388, ip, i.p.; for ILS at 20 mg/kg / ILS at 60 mg/kg: 216 h; for ILS at 20 mg/kg: 20 mg/kg × 9 days; for ILS at 60 mg/kg: 60 mg/kg × 9 days; for ILS at 200 mg/kg: 200 mg/kg × 2 (1st and 5th day)
Protocol: The treated group to which the compound of the present invention was administered consisted of seven mice, while the control group consisted of ten mice. Six weeks old male mice [CDF1 (BALB/c×DBA/2), 25±2 g of body weight] were employed as host animals.
Tumor cells (1.0×10^6) of P388 lymphocytic leukemia were transplanted intraperitoneally into each mouse. The treatment began one day after the transplantation and the prescribed dose of each test compound was administered intraperitoneally to the mice once a day for 9 days or on the 1st and 5th day.
Antitumor activity of the test compound was evaluated by the rate of increase in life span (I.L.S.%) which was calculated with the following formula. [formula] T: mean survival time of treated mice C: mean survival time of control mice

[2] = tested on: Colon adenocarcinoma No. 38; assay: Animal Test on Colon Adenocarcinoma No. 38 (growth inhibition); assay type: in vivo, mice [BDF1 (C57BL/6×DBA/2)]; conditions: 60 mg/kg daily, orally, 8 days; tumor weight on 30th day
Protocol: as §1, §2
Tumor cells (40 mg of fragment) of Colon adenocarcinoma No. 38 were transplanted subcutaneously in inguinal region of each mouse. The treatment began one day after the transplantation and the prescribed dose of each test compound was administered orally to the mice once a day for 8 days.
On the 30th day after the transplantation, the tumors of all the mice were excised and weighed. Antitumor activity of the test compound was evaluated by the rate of growth inhibition (G.I.%) which was calculated in the same manner as used in the animal test on Lewis lung carcinoma.

Acute Toxicity Test = conditions: mouse, in vivo
Protocol: The test group to which the compound of the present invention was administered consisted of ten mice. Five weeks old male mice (ddY, 23±2 g of body weight) were employed as test animals.

[3] = protic polar solvents such as water, lower alcohol; background statement on known compound; cited from earlier work

Structure (SMILES) | ILS at 20 mg/kg (B-16 melanoma) | ILS at 20 mg/kg [1] | ILS at 200 mg/kg [1] | also measured
CC(=O)OCN1C(=O)CN(CCN2CC(=O)N(COC(C)=O)C(=O)C2)CC1=O [1,2-Bis(4-acetoxymethyl-3,5-dioxopiperazin-1-yl)ethane] | 39% | 63% | 45% | G.I. (Lewis lung carcinoma; 60 mg/kg daily): 79.6%; ILS at 60 mg/kg [1]: 118%; G.I. [2]: 68.0%; LD50 (Acute Toxicity Test; ip, 14 days observation): > 1000 mg/kg; LD50 (Acute Toxicity Test; po): > 2000 mg/kg
O=C(CCl)OCN1C(=O)CN(CCN2CC(=O)N(COC(=O)CCl)C(=O)C2)CC1=O [1,2-Bis(4-chloroacetoxymethyl-3,5-dioxopiperazin-1-yl)ethane] | 38% | 54% | 38% | G.I. (Lewis lung carcinoma; 50 mg/kg daily): 66.8%
COC(=O)OCN1C(=O)CN(CCN2CC(=O)N(COC(=O)OC)C(=O)C2)CC1=O [1,2-Bis(4-methoxycarbonyloxymethyl-3,5-dioxopiperazin-1-yl)ethane] | – | 75% | 103% | G.I. (Lewis lung carcinoma; 60 mg/kg daily): 57.7%; ILS at 30 mg/kg (B-16 melanoma): 78%; LD50 (Acute Toxicity Test; ip, 14 days observation): ~500 mg/kg; LD50 (Acute Toxicity Test; po): > 2000 mg/kg
O=C(OCN1C(=O)CN(CCN2CC(=O)N(COC(=O)c3ccccc3Cl)C(=O)C2)CC1=O)c1ccccc1Cl [1,2-Bis(4-o-chlorobenzoyloxymethyl-3,5-dioxopiperazin-1-yl)ethane] | 65% | 55% | 90% | G.I. (Lewis lung carcinoma; 40 mg/kg daily): 43.7%
O=C(Cc1ccccc1Cl)OCN1C(=O)CN(CCN2CC(=O)N(COC(=O)Cc3ccccc3Cl)C(=O)C2)CC1=O [1,2-Bis(4-o-chlorophenylacetoxymethyl-3,5-dioxopiperazin-1-yl)ethane] | – | 65% | 83% | –
COc1ccccc1C(=O)OCN1C(=O)CN(CCN2CC(=O)N(COC(=O)c3ccccc3OC)C(=O)C2)CC1=O [1,2-Bis(4-o-methoxybenzoyloxymethyl-3,5-dioxopiperazin-1-yl)ethane] | – | 113% | 99% | –
CC(C)(C)C(=O)OCN1C(=O)CN(CCN2CC(=O)N(COC(=O)C(C)(C)C)C(=O)C2)CC1=O [1,2-Bis(4-pivaloyloxymethyl-3,5-dioxopiperazin-1-yl)ethane] | – | 53% | 66% | –
O=C(OCN1C(=O)CN(CCN2CC(=O)N(COC(=O)c3cccs3)C(=O)C2)CC1=O)c1cccs1 [1,2-Bis[4-(2-thenoyloxymethyl)-3,5-dioxopiperazin-1-yl]ethane] | – | – | 118% | –
O=C(OCN1C(=O)CN(CCN2CC(=O)N(COC(=O)c3ccccc3)C(=O)C2)CC1=O)c1ccccc1 [1,2-bis(4-benzoyloxymethyl-3,5-dioxopiperazin-1-yl)ethane] | 87% | 68% | 107% | –
CCOC(=O)OCN1C(=O)CN(CCN2CC(=O)N(COC(=O)OCC)C(=O)C2)CC1=O [1,2-bis(4-ethoxycarbonyloxymethyl-3,5-dioxopiperazin-1-yl)ethane] | – | 48% | 45% | –
CC(C)COC(=O)OCN1C(=O)CN(CCN2CC(=O)N(COC(=O)OCC(C)C)C(=O)C2)CC1=O [1,2-bis(4-isobutoxycarbonyloxymethyl-3,5-dioxopiperazin-1-yl)ethane] | 86% | 78% | 138% | G.I. (Lewis lung carcinoma; 50 mg/kg daily): 54.4%; ILS at 60 mg/kg [1]: 175%; G.I. [2]: 68.8%; LD50 (Acute Toxicity Test; ip, 14 days observation): > 850 mg/kg; LD50 (Acute Toxicity Test; po): > 1000 mg/kg
O=C1CN(CCN2CC(=O)N(CN3CCOCC3)C(=O)C2)CC(=O)N1CN1CCOCC1 [1,2-bis(4-morpholinomethyl-3,5-dioxopiperazin-1-yl)ethane, reference compound] | 40% | 90% | – | G.I. (Lewis lung carcinoma; 60 mg/kg daily): 22.6%; stability in protic polar solvents [3]: extremely unstable in the protic polar solvents such as water, lower alcohol and so on; ILS at 100 mg/kg ([1]; 100 mg/kg × 2 (1st and 5th day)): 60%; G.I. [2]: 72.8%; LD50 (Acute Toxicity Test; ip, 14 days observation): 280 mg/kg; LD50 (Acute Toxicity Test; po): > 1000 mg/kg
O=C(OCN1C(=O)CN(CCN2CC(=O)N(COC(=O)c3ccccc3F)C(=O)C2)CC1=O)c1ccccc1F [1,2-bis(4-o-fluorobenzoyloxymethyl-3,5-dioxopiperazin-1-yl)ethane] | – | – | 113% | –
O=C(CSc1ccc(Br)cc1)OCN1C(=O)CN(CCN2CC(=O)N(COC(=O)CSc3ccc(Br)cc3)C(=O)C2)CC1=O [1,2-bis(4-p-bromophenylthioacetoxymethyl-3,5-dioxopiperazin-1-yl)ethane] | – | – | 108% | –
O=C(COc1ccc(Cl)cc1)OCN1C(=O)CN(CCN2CC(=O)N(COC(=O)COc3ccc(Cl)cc3)C(=O)C2)CC1=O [1,2-bis(4-p-chlorophenoxyacetoxymethyl-3,5-dioxopiperazin-1-yl)ethane] | – | 40% | 94% | –
O=C(CSc1ccc(F)cc1)OCN1C(=O)CN(CCN2CC(=O)N(COC(=O)CSc3ccc(F)cc3)C(=O)C2)CC1=O [1,2-bis(4-p-fluorophenylthioacetoxymethyl-3,5-dioxopiperazin-1-yl)ethane] | – | – | 120% | ILS at 40 mg/kg (B-16 melanoma; 40 mg/kg daily): 83%
COc1ccc(C=CC(=O)OCN2C(=O)CN(CCN3CC(=O)N(COC(=O)C=Cc4ccc(OC)cc4)C(=O)C3)CC2=O)cc1 [1,2-bis(4-p-methoxycinnamoyloxymethyl-3,5-dioxopiperazin-1-yl)ethane] | – | 78% | 36% | –
O=C(Cc1ccccc1)OCN1C(=O)CN(CCN2CC(=O)N(COC(=O)Cc3ccccc3)C(=O)C2)CC1=O [1,2-bis(4-phenylacetoxymethyl-3,5-dioxopiperazin-1-yl)ethane] | 83% | 143% | 204% | –
O=C(COc1cc(Cl)c(Cl)cc1Cl)OCN1C(=O)CN(CCN2CC(=O)N(COC(=O)COc3cc(Cl)c(Cl)cc3Cl)C(=O)C2)CC1=O [1,2-bis[4-(2,4,5-trichlorophenoxyacetoxymethyl)-3,5-dioxopiperazin-1-yl]ethane] | – | 65% | 94% | –
O=C(OCN1C(=O)CN(CCN2CC(=O)N(COC(=O)c3ccco3)C(=O)C2)CC1=O)c1ccco1 [1,2-bis[4-(2-furoyloxymethyl)-3,5-dioxopiperazin-1-yl]ethane] | 88% | – | > 200% | –
CC(C)(Oc1ccc(Cl)cc1)C(=O)OCN1C(=O)CN(CCN2CC(=O)N(COC(=O)C(C)(C)Oc3ccc(Cl)cc3)C(=O)C2)CC1=O [1,2-bis[4-(2-p-chlorophenoxy-2-methylpropionyloxymethyl)-3,5-dioxopiperazin-1-yl]ethane] | – | 63% | 114% | ILS at 30 mg/kg (B-16 melanoma): 86%
CC(=O)Oc1ccc(C=CC(=O)OCN2C(=O)CN(CCN3CC(=O)N(COC(=O)C=Cc4ccc(OC(C)=O)c(OC(C)=O)c4)C(=O)C3)CC2=O)cc1OC(C)=O [1,2-bis[4-(3,4-diacetoxycinnamoyloxymethyl)-3,5-dioxopiperazin-1-yl]ethane] | – | 35% | 51% | –
O=C(COc1ccc(Cl)cc1Cl)OCN1C(=O)CN(CCN2CC(=O)N(COC(=O)COc3ccc(Cl)cc3Cl)C(=O)C2)CC1=O [1.2-Bis[4-(2,4-dichlorophenoxyacetoxymethyl)-3,5-dioxopiperazin-1-yl]ethane] | 35% | 49% | 72% | ILS at 60 mg/kg [1]: 105%
